Test results: US10167262B2, “Herbicidal substituted 3-arylpyrazoles” (FMC CORPORATION, priority 2014, dated 2019)

Tests used:
Type in all cases: in vivo
[1] = system: wheat (Triticum aestivum); test: Test A pre-/postemergence greenhouse herbicide test, visual injury rating 0-100
How it was run: (§1)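 Ratings are visual, 0 to 100 relative to untreated plants, taken approximately 10 days post-treatment in the greenhouse. Both preemergence soil and postemergence foliar routes were used with surfactant-containing non-phytotoxic solvent formulations.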

[2] = system: velvetleaf (Abutilon theophrasti); test: as above
How it was run: as §1

[3] = system: pigweed (Amaranthus retroflexus); test: as above
How it was run: as §1

[4] = system: morningglory (Ipomoea spp.); test: as above
How it was run: as §1

[5] = system: giant foxtail (Setaria faberii); test: as above
How it was run: as §1

[6] = system: large (Lg) crabgrass (Digitaria sanguinalis); test: as above
How it was run: as §1

corn (Zea mays) [7] = test: as above
How it was run: as §1

[8] = system: barnyardgrass (Echinochloa crus-galli); test: as above
How it was run: as §1

[9] = system: Italian ryegrass (Lolium multiflorum); test: Test C pre-/postemergence greenhouse test, plant response rating 0-100; conditions: Postemergence; for Plant response rating, Ryegrass, Italian: 250 g ai/ha, scale 0 to 100
How it was run: (§2)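 Visual 0–100 control scores, taken 13 to 15 days post-application in a greenhouse, reflect treatment preemergence (seed in loam soil with sand) or postemergence (2–18 cm plants in peat moss, vermiculite medium). A dash marks no result.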

[10] = system: velvetleaf (Abutilon theophrasti); test: as above; conditions: Postemergence; for Plant response rating, Velvetleaf: 250 g ai/ha, scale 0 to 100
How it was run: as §2

[11] = system: pigweed (Amaranthus retroflexus); test: as above; conditions: Postemergence; for Plant response rating, Pigweed: 250 g ai/ha, scale 0 to 100
How it was run: as §2

corn (Zea mays) [12] = test: as above; conditions: Postemergence; for Plant response rating, Corn: 250 g ai/ha, scale 0 to 100
How it was run: as §2

[13] = system: ragweed (common ragweed, Ambrosia elatior); test: as above; conditions: Postemergence; for Plant response rating, Ragweed: 250 g ai/ha, scale 0 to 100
How it was run: as §2

Q: What does the source list for `CCn1cc(C(=NN2CCCC2)c2ccccc2)c(-c2cc(Cl)cc(Cl)c2)n1` [Compound 37]?
A: Plant response rating (0 to 100 scale), Wheat ([1]; Postemergence, 125 g ai/ha): 0; Plant response rating (0 to 100 scale), Wheat ([1]; Postemergence, 500 g ai/ha): 0; Wheat plant response rating (0 = no effect, 100 = complete control) ([1]; Preemergence, 125 g ai/ha): 0; Plant response rating (0 to 100 scale), Wheat ([1]; Preemergence, 500 g ai/ha): 0; Plant response rating (0 to 100 scale), Velvetleaf ([2]; Postemergence, 125 g ai/ha): 80; Plant response rating (0 to 100 scale), Velvetleaf ([2]; Postemergence, 500 g ai/ha): 100; Velvetleaf plant response rating (0 = no effect, 100 = complete control) ([2]; Preemergence, 125 g ai/ha): 0; Plant response rating (0 to 100 scale), Velvetleaf ([2]; Preemergence, 500 g ai/ha): 40; Plant response rating (0 to 100 scale), Pigweed ([3]; Postemergence, 125 g ai/ha): 80; Plant response rating (0 to 100 scale), Pigweed ([3]; Postemergence, 500 g ai/ha): 100; Pigweed plant response rating (0 = no effect, 100 = complete control) ([3]; Preemergence, 125 g ai/ha): 40; Plant response rating (0 to 100 scale), Pigweed ([3]; Preemergence, 500 g ai/ha): 90; Plant response rating (0 to 100 scale), Morningglory ([4]; Postemergence, 125 g ai/ha): 0; Plant response rating (0 to 100 scale), Morningglory ([4]; Postemergence, 500 g ai/ha): 0; Morningglory plant response rating (0 = no effect, 100 = complete control) ([4]; Preemergence, 125 g ai/ha): 0; Plant response rating (0 to 100 scale), Morningglory ([4]; Preemergence, 500 g ai/ha): 0; Plant response rating (0 to 100 scale), Foxtail, Giant ([5]; Postemergence, 125 g ai/ha): 0; Plant response rating (0 to 100 scale), Foxtail, Giant ([5]; Postemergence, 500 g ai/ha): 0; Foxtail, Giant plant response rating (0 = no effect, 100 = complete control) ([5]; Preemergence, 125 g ai/ha): 0; Plant response rating (0 to 100 scale), Foxtail, Giant ([5]; Preemergence, 500 g ai/ha): 0; Plant response rating (0 to 100 scale), Crabgrass, Large ([6]; Postemergence, 125 g ai/ha): 0; Plant response rating (0 to 100 scale), Crabgrass, Large ([6]; Postemergence, 500 g ai/ha): 0; Crabgrass, Large plant response rating (0 = no effect, 100 = complete control) ([6]; Preemergence, 125 g ai/ha): 0; Plant response rating (0 to 100 scale), Crabgrass, Large ([6]; Preemergence, 500 g ai/ha): 0; Plant response rating (0 to 100 scale), Corn (corn (Zea mays) [7]; Postemergence, 125 g ai/ha): 0; Plant response rating (0 to 100 scale), Corn (corn (Zea mays) [7]; Postemergence, 500 g ai/ha): 0; Corn plant response rating (0 = no effect, 100 = complete control) (corn (Zea mays) [7]; Preemergence, 125 g ai/ha): 0; Plant response rating (0 to 100 scale), Corn (corn (Zea mays) [7]; Preemergence, 500 g ai/ha): 0; Plant response rating (0 to 100 scale), Barnyardgrass ([8]; Postemergence, 125 g ai/ha): 0; Plant response rating (0 to 100 scale), Barnyardgrass ([8]; Postemergence, 500 g ai/ha): 0; Barnyardgrass plant response rating (0 = no effect, 100 = complete control) ([8]; Preemergence, 125 g ai/ha): 0; Plant response rating (0 to 100 scale), Barnyardgrass ([8]; Preemergence, 500 g ai/ha): 0; Plant response rating (0 to 100), Ryegrass, Italian ([9]; 62 g ai/ha): 0; Plant response rating (0 to 100), Ryegrass, Italian ([9]; 125 g ai/ha): 0; Plant response rating, Ryegrass, Italian [9]: 0; Plant response rating (0 to 100), Velvetleaf ([10]; 62 g ai/ha): 75; Plant response rating (0 to 100), Velvetleaf ([10]; 125 g ai/ha): 80; Plant response rating, Velvetleaf [10]: 98; Plant response rating (0 to 100), Pigweed ([11]; 62 g ai/ha): 75; Plant response rating (0 to 100), Pigweed ([11]; 125 g ai/ha): 80; Plant response rating, Pigweed [11]: 100; Plant response rating (0 to 100), Corn (corn (Zea mays) [12]; 31 g ai/ha): 0; Plant response rating (0 to 100), Corn (corn (Zea mays) [12]; 62 g ai/ha): 0; Plant response rating (0 to 100), Corn (corn (Zea mays) [12]; 125 g ai/ha): 5; Plant response rating, Corn (corn (Zea mays) [12]): 5; Plant response rating (0 to 100), Ragweed ([13]; 62 g ai/ha): 5; Plant response rating (0 to 100), Ragweed ([13]; 125 g ai/ha): 5; Plant response rating, Ragweed [13]: 20

Q: What does the source list for `CC(C)n1cc(C(=O)c2ccccc2)c(-c2cc(Cl)cc(Cl)c2)n1` [Compound 44]?
A: Plant response rating (0 to 100 scale), Wheat ([1]; Postemergence, 125 g ai/ha): 0; Plant response rating (0 to 100 scale), Wheat ([1]; Postemergence, 500 g ai/ha): 0; Wheat plant response rating (0 = no effect, 100 = complete control) ([1]; Preemergence, 125 g ai/ha): 0; Plant response rating (0 to 100 scale), Wheat ([1]; Preemergence, 500 g ai/ha): 0; Plant response rating (0 to 100 scale), Velvetleaf ([2]; Postemergence, 125 g ai/ha): 90; Plant response rating (0 to 100 scale), Velvetleaf ([2]; Postemergence, 500 g ai/ha): 90; Velvetleaf plant response rating (0 = no effect, 100 = complete control) ([2]; Preemergence, 125 g ai/ha): 20; Plant response rating (0 to 100 scale), Velvetleaf ([2]; Preemergence, 500 g ai/ha): 40; Plant response rating (0 to 100 scale), Pigweed ([3]; Postemergence, 125 g ai/ha): 80; Plant response rating (0 to 100 scale), Pigweed ([3]; Postemergence, 500 g ai/ha): 100; Pigweed plant response rating (0 = no effect, 100 = complete control) ([3]; Preemergence, 125 g ai/ha): 0; Plant response rating (0 to 100 scale), Pigweed ([3]; Preemergence, 500 g ai/ha): 70; Morningglory plant response rating (0 = no effect, 100 = complete control) ([4]; Preemergence, 125 g ai/ha): 0; Plant response rating (0 to 100 scale), Morningglory ([4]; Preemergence, 500 g ai/ha): 0; Plant response rating (0 to 100 scale), Foxtail, Giant ([5]; Postemergence, 125 g ai/ha): 0; Plant response rating (0 to 100 scale), Foxtail, Giant ([5]; Postemergence, 500 g ai/ha): 0; Foxtail, Giant plant response rating (0 = no effect, 100 = complete control) ([5]; Preemergence, 125 g ai/ha): 0; Plant response rating (0 to 100 scale), Foxtail, Giant ([5]; Preemergence, 500 g ai/ha): 0; Plant response rating (0 to 100 scale), Crabgrass, Large ([6]; Postemergence, 125 g ai/ha): 0; Plant response rating (0 to 100 scale), Crabgrass, Large ([6]; Postemergence, 500 g ai/ha): 0; Crabgrass, Large plant response rating (0 = no effect, 100 = complete control) ([6]; Preemergence, 125 g ai/ha): 0; Plant response rating (0 to 100 scale), Crabgrass, Large ([6]; Preemergence, 500 g ai/ha): 0; Plant response rating (0 to 100 scale), Corn (corn (Zea mays) [7]; Postemergence, 125 g ai/ha): 0; Plant response rating (0 to 100 scale), Corn (corn (Zea mays) [7]; Postemergence, 500 g ai/ha): 0; Corn plant response rating (0 = no effect, 100 = complete control) (corn (Zea mays) [7]; Preemergence, 125 g ai/ha): 0; Plant response rating (0 to 100 scale), Corn (corn (Zea mays) [7]; Preemergence, 500 g ai/ha): 0; Plant response rating (0 to 100 scale), Barnyardgrass ([8]; Postemergence, 125 g ai/ha): 0; Plant response rating (0 to 100 scale), Barnyardgrass ([8]; Postemergence, 500 g ai/ha): 0; Barnyardgrass plant response rating (0 = no effect, 100 = complete control) ([8]; Preemergence, 125 g ai/ha): 0; Plant response rating (0 to 100 scale), Barnyardgrass ([8]; Preemergence, 500 g ai/ha): 0; Plant response rating (0 to 100), Ryegrass, Italian ([9]; 62 g ai/ha): 0; Plant response rating (0 to 100), Ryegrass, Italian ([9]; 125 g ai/ha): 0; Plant response rating, Ryegrass, Italian [9]: 0; Plant response rating (0 to 100), Velvetleaf ([10]; 62 g ai/ha): 60; Plant response rating (0 to 100), Velvetleaf ([10]; 125 g ai/ha): 75; Plant response rating, Velvetleaf [10]: 80; Plant response rating (0 to 100), Pigweed ([11]; 62 g ai/ha): 60; Plant response rating (0 to 100), Pigweed ([11]; 125 g ai/ha): 60; Plant response rating, Pigweed [11]: 100; Plant response rating (0 to 100), Corn (corn (Zea mays) [12]; 31 g ai/ha): 0; Plant response rating (0 to 100), Corn (corn (Zea mays) [12]; 62 g ai/ha): 5; Plant response rating (0 to 100), Corn (corn (Zea mays) [12]; 125 g ai/ha): 5; Plant response rating, Corn (corn (Zea mays) [12]): 10; Plant response rating (0 to 100), Ragweed ([13]; 62 g ai/ha): 5; Plant response rating (0 to 100), Ragweed ([13]; 125 g ai/ha): 5; Plant response rating, Ragweed [13]: 10
